In patent US20130236441A1, “METHODS OF TREATING AND PREVENTING THROMBOTIC DISEASES USING ASK1 INHIBITORS” (University of Delaware, priority 2010, published 2013):

What was measured:
[1] = tested on: WT or Ask1−/− mouse platelets; experiment: 14C-serotonin release (dense granule secretion) from agonist-stimulated mouse platelets; type: cell-based; conditions: aspirin pretreatment
Experimental: (A) ^14C-serotonin-labeled platelets (2.5×10^8 per ml) from Ask1^+/+ and Ask1^−/− mice were stimulated with various concentration of thrombin for 5 min, and the ^14C-serotonin release was determined using a liquid scintillation counter. (B) Platelets from Ask1^+/+ and Ask1^−/− mice were stimulated with various concentrations of thrombin for 5 min and P-selectin exposure on the platelet surface was determined using flow cytometry. Granular secretion was assessed using WT or Ask1−/− mouse platelets in response to low and high dose of agonists such as thrombin (FIG. 7A) and thrombin/PAR4-peptide (AYPGKF) (FIG. 7B). Dense granule secretion was analyzed by measuring ^14C-serotonin release (FIG. 7A). α-granule secretion was assessed by P-selectin exposure using flow cytometry (FIG. 7B). Ask1 regulated a significant portion of dense granule secretion induced by high dose of thrombin (FIG. 7A). Similar results were obtained when P-selectin exposure was assessed as a measure of α-granule secretion (FIG. 7B).

ASK1 = ASK1 T838 phosphorylation in thrombin-stimulated washed human platelets (Western blot); type: cell-based; conditions: thrombin 0.05 U-1 U/ml
Experimental: Washed human platelets (2×10^8) were stimulated with thrombin (1 U/ml) for various time periods as indicated, and the lysates were Western blotted using phospho-specific antibodies against (A) ASK1, (B) MKK3 and P38, and (C) MKK4, and reprobed with corresponding antibodies against total proteins (Cell Signaling Technology, Inc.) to ensure relatively equal loading of ASK1, MKK3, P38 or MKK4 protein in each of its respective lanes.
A study was carried out to determine whether ASK1 was activated during agonist-induced platelet stimulation. A well-characterized antibody specific to the phosphorylated threonine 838 (T838) of ASK1 was used. […] Upon stimulation with as low as 0.05 U-1 U/ml of thrombin, ASK1 was activated rapidly and transiently as evidenced by phosphorylation of T838 (FIG. 3A). In a low percentage SDS-PAGE, ASK1 appeared as a doublet.

Molecule | amount of serotonin released ([1]; Ask1−/− platelets) | amount of serotonin released ([1]; WT platelets) | ASK1 activation (phosphorylation of T838) (ASK1)
CC(=O)Oc1ccccc1C(=O)O [aspirin] | no effect | reduced the amount of serotonin released to that of Ask1−/− platelets | 
thrombin |  |  | dose-dependently activated
